Here are results for two molecules from paper PMC7013731, “Elucidating the Structural Basis of the Intracellular pH Sensing Mechanism of TASK-2 K2P Channels” (International Journal of Molecular Sciences, 2020).

The target in one series is T1, TASK-2 (Mus musculus, UniProt Q9JK62).
T1 construct: gene Kcnk5; full-length TASK-2 plasmid transiently expressed in HEK-293 cells with separate GFP marker plasmid; homodimer
T1 sequence (Q9JK62 1-502): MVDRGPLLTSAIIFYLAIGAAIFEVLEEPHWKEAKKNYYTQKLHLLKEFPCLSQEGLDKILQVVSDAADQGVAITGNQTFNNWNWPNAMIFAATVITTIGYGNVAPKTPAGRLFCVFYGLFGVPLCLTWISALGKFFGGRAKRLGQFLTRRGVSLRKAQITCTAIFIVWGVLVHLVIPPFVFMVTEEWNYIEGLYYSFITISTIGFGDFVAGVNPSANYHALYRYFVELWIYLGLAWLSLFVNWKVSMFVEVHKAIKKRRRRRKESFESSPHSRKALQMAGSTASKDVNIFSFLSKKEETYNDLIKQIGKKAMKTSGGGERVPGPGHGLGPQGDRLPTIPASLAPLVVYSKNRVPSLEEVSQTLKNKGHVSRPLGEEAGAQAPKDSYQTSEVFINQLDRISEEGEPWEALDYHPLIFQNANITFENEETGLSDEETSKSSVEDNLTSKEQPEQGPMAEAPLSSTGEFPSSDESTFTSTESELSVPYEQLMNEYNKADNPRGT
The series is described as follows: whole-cell patch clamp, transfected HEK-293 cells. Format: cell-based.

Another series has as its target Lys245 (UniProt position 245, LFVNWKVSMFV). Nature of the series: electrophysiology. The following applies: wild-type channel, gating by intracellular pH (pHi); cited from earlier work.

`NCCC(Oc1ccc(C(F)(F)F)cc1)c1ccccc1` (racemic) [norfluoxetine] returned an IC50 on TASK-2 of 17 ± 5 µM.

“TASK-2 (K2P5.1, TWIK-related acid-sensitive K+ channel 2) (Mus musculus (inferred from GenBank AF319542; species not stated in the article))”: the pKa with Lys245 was around 8.0.

A word on the IC50: it is the concentration that inhibits the measured activity by half. The pKa is the negative logarithm of the acid dissociation constant.
